For data set [1], the system named is HCT-116. Briefly: Heat shock toxicity in human HCT-116 cells assessed as increase in HSP40 mRNA expression at 10 to 100 nM incubated for 24 hrs by qRT-PCR analysis. It is filed as cell-based. As to conditions: hct-116, 24 h, 0.1 µM, dose 10-100 nM. In general terms: Quantitative PCR measures a nucleic acid by following its amplification.
Data set [2] relates to HCT-116. Briefly: Heat shock toxicity in human HCT-116 cells assessed as increase in HSP70 protein expression at 3 to 100 nM incubated for 24 hrs by Western blot analysis. As to conditions: hct-116, 24 h, 0.1 µM, dose 3-100 nM. It is filed as cell-based. Background: A western blot detects proteins with antibodies after separation by electrophoresis.
The nature of data set [3]: Toxicity in BALB/c nude mouse xenografted with human HCT-116 cells assessed as body weight loss at 20 mg/kg, ip administered every other day for 14 days. It is filed as organism-based. As to conditions: in vivo, 336 h, time 14 day.
In data set [4] the test system is HCT-116. The data set is described as follows: Heat shock toxicity in human HCT-116 cells assessed as increase in HSP70 mRNA expression at 10 to 100 nM incubated for 24 hrs by qRT-PCR analysis. The note with it: hct-116, 24 h, 0.1 µM, dose 10-100 nM. It is filed as cell-based.
Data set [5] concerns HCT-116. The data set is described as follows: Heat shock toxicity in human HCT-116 cells assessed as increase in HSP40 protein expression at 3 to 100 nM incubated for 24 hrs by Western blot analysis. The class given is cell-based. As to conditions: hct-116, 24 h, 0.1 µM, dose 3-100 nM.
The subject of data set [6] is HCT-116. The data set is described as follows: Heat shock toxicity in human HCT-116 cells assessed as increase in HSP27 protein expression at 3 to 100 nM incubated for 24 hrs by Western blot analysis. It is filed as cell-based. The note with it: hct-116, 24 h, 0.1 µM, dose 3-100 nM.
Another data set concerns SW-620. The data set is described as follows: Antiproliferative activity against human SW620 cells assessed as inhibition of cell proliferation incubated for 72 hrs by CCK8 assay. As to conditions: SW-620, 72 h. The class given is functional, cell-based.
Data set [7] deals with HCT-116. The data set is described as follows: Heat shock toxicity in human HCT-116 cells assessed as increase in HSP27 mRNA expression at 10 to 100 nM incubated for 24 hrs by qRT-PCR analysis. The class given is cell-based. The note with it: hct-116, 24 h, 0.1 µM, dose 10-100 nM.
Data set [8] relates to HCT-116. The data set is described as follows: Antiproliferative activity against human HCT-116 cells assessed as inhibition of cell proliferation incubated for 72 hrs by CCK8 assay. The class given is functional, cell-based. As to conditions: HCT-116, 72 h. A general note: Tetrazolium assays rely on reduction of a dye to a coloured formazan, in cell work by metabolically active cells.

The target of data set [9] is T1, Serine/threonine-protein phosphatase 5 (Homo sapiens) (UniProt P53041).
T1 sequence (whole entry): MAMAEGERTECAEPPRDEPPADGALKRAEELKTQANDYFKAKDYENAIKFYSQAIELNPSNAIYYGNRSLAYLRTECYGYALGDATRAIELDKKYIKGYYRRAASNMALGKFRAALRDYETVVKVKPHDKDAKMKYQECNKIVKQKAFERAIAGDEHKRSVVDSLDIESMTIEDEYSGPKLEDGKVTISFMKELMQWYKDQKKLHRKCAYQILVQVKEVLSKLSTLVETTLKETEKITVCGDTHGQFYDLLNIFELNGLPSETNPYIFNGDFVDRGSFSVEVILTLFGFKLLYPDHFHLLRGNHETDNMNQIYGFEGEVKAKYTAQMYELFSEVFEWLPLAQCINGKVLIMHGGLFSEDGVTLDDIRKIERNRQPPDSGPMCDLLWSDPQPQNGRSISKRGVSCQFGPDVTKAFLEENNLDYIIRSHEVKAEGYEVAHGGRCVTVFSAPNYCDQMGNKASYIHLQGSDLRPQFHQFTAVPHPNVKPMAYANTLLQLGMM
The data set is described as follows: Activation of His-tagged human PP5 extracted from Escherichia coli BL21 using pNPP as substrate assessed as fold increase in phosphatase activity at 50 uM incubated for 30 mins by spectrophotometric analysis.

Data set [10] concerns the target T1, Serine/threonine-protein phosphatase 5 (Homo sapiens). Briefly: Activation of His-tagged human PP5 extracted from Escherichia coli BL21 using pNPP as substrate assessed as increase in phosphatase activity incubated for 30 mins by spectrophotometric analysis. As to conditions: filed as activator.
Data set [11] has the same target. Briefly: Activation of His-tagged human PP5 extracted from Escherichia coli BL21 using pNPP as substrate assessed as fold increase in phosphatase activity at 200 uM incubated for 30 mins by spectrophotometric analysis. The note with it: filed as activator.
Data set [12] shares this target. Briefly: Activation of His-tagged human PP5 extracted from Escherichia coli BL21 using pNPP as substrate assessed as fold change in maximum activation upto 300 uM incubated for 30 mins by spectrophotometric analysis. As to conditions: filed as activator.
For data set [13], the target named is T2, Serine/threonine-protein phosphatase 5 (Homo sapiens, UniProt P53041).
T2 sequence (P53041 whole entry): T1 sequence (whole entry)
The data set is described as follows: Inhibition of human PP5 phosphatase domain extracted from Escherichia coli BL21 using pNPP as substrate incubated for 30 mins by spectrophotometric analysis.

The target of data set [14] is T2, Serine/threonine-protein phosphatase 5. Briefly: Inhibition of DDO-3733 preincubated human PP5 phosphatase domain extracted from Escherichia coli BL21 using pNPP as substrate incubated for 30 mins by spectrophotometric analysis.

pIC50: −log10 of the molar value.

What is called pIC50 is −log10 of the IC50, conventionally taken in molar units. Regarding `CC(C)c1cc(C(=O)N2Cc3ccc(CN4CCN(C)CC4)cc3C2)c(O)cc1O` [ONALESPIB], the Activity result in the data set with HCT-116 [1] is given as “Toxic”; in the data set on HCT-116 [2] it was “Toxic”; in [3], “Non-Toxic”; with HCT-116 [4], “Toxic”; in the data set with HCT-116 [5], “Toxic”; in the data set with HCT-116 [6] it was “Toxic”. For the same molecule, the Activity entry in the data set on HCT-116 [7] is reported as “Toxic”. The pIC50 was 6.91 with SW-620 and 7.11 in the data set with HCT-116 [8].
Take `N=c1oc2c(Br)cc(Br)cc2cc1C(N)=S`: the fold change (FC) in data set [9] (filed as activator) was determined as 2.6.
As to `N=c1oc2ccc(O)cc2cc1C(N)=S`, the fold change (FC) in [9] (filed as activator) came out at 1.9.
Turning to `N=c1oc2c(F)cccc2cc1C(N)=S`, the fold change (FC) in [9] was less than 1.5.
`N=c1oc2c(F)cc(F)cc2cc1C(N)=S`: in data set [9] (filed as activator), the fold change (FC) worked out at 2.1.
Still for that read-out and setting: the figure for `N=c1oc2ccccc2cc1C(N)=S` is 1.8; for `N=c1oc2cc(F)c(F)cc2cc1C(N)=S` it is 1.7.
Take `COc1ccc2oc(=N)c(C(N)=S)cc2c1`: in data set [10], the Activity result was “Dose-Dependent Effect”. Moreover, the values for the fold change (FC) in data set [11] and in [9] (filed as activator) were 3.4 and 1.9, respectively.
In the case of `COc1ccc2cc(C(N)=S)c(=N)oc2c1`, in data set [9] (filed as activator), the fold change (FC) is 1.6.
The same measure, in the same setting: the value for `N=c1oc2c(F)ccc(F)c2cc1C(N)=S` was 1.8.
On to `C/N=c1/oc2c(F)cc(F)cc2cc1C(N)=S`, for which, in [9], the fold change (FC) was less than 1.5.
As for `N=c1oc2cc(F)ccc2cc1C(N)=S`, the fold change (FC) in data set [9] (filed as activator) was 1.7.
Turning to `N=c1oc2cc(Br)ccc2cc1C(N)=S`, the Activity result in data set [10] is “Dose-Dependent Effect”. Besides, the fold change (FC) in [9] (filed as activator) is 2.1; in data set [12], 4.
For the molecule `N=c1oc2c(Cl)cc(Cl)cc2cc1C(N)=S`, the fold change (FC) in data set [9] is less than 1.5.
As to `NC(=S)C1=Cc2cc(F)cc(F)c2OC1N` (stereo not drawn), the fold change (FC) in data set [9] (filed as activator) stood at 1.8.
Take `N=c1oc2cc([N+](=O)[O-])ccc2cc1C(N)=S`: in [9], the fold change (FC) is less than 1.5.
The same measure, in the same setting: the value for `N=c1oc2cc(F)cc(F)c2cc1C(N)=O` was less than 1.5.
For the molecule `COc1cc(Br)cc2cc(C(N)=S)c(=N)oc12`, the fold change (FC) in data set [9] (filed as activator) was 2.1.
The same measure, in the same setting: the value for `N=c1oc2ccc3ccccc3c2cc1C(N)=S` was 1.6.
For `N=c1oc2cccc(Br)c2cc1C(N)=S`, the fold change (FC) in [9] is less than 1.5.
`CN1CCN(C(=O)C2C(C(=O)O)[C@H]3CC[C@@H]2O3)CC1` (stereo partly drawn) [LB-100]: the pIC50 was 4.66 in data set [13] and 4.68 in data set [14].
With `N=c1oc2cc(O)ccc2cc1C(N)=S`, in data set [9] (filed as activator), the fold change (FC) came to 2.4.
Still for that read-out and setting: the value for `Cc1ccc2oc(=N)c(C(N)=S)cc2c1` was 1.6; that for `N=c1oc2c(F)cc(F)cc2cc1C(=S)NC=O` was 2.1.
`N=c1oc2ccc(F)cc2cc1C(N)=S`: in data set [9], the fold change (FC) is less than 1.5.
Regarding `N=c1oc2cccc(F)c2cc1C(N)=S`, the fold change (FC) in data set [9] (filed as activator) was determined as 1.6.
Consider `COc1cccc2cc(C(N)=S)c(=N)oc12`, for which the fold change (FC) in data set [9] was less than 1.5.
The same measure, in the same setting: the value for `CO/N=c1/oc2c(F)cc(F)cc2cc1C(N)=S` was less than 1.5; that for `N=c1oc2c(F)cc(F)cc2cc1C(N)=O` was less than 1.5; that for `COc1cccc2oc(=N)c(C(N)=S)cc12` was less than 1.5.

(Values after ChEMBL document CHEMBL5579878, “Allosteric Activation of Protein Phosphatase 5 with Small Molecules” (J Med Chem, 2024).)
